# According to US20100297330A1, “YOGHURT CONTAINING HYDROXYTYROSOL AND OTHER BIOPHENOLS WITH A PREVENTIVE NUTRITIONAL ACTIVITY BENEFICIAL TO HUMAN BEINGS” (priority 2007, published 2010):
# What was measured:
# mammals = assay: toxicity in mammals (unpublished proprietary studies); format: in vivo; settings: 2 g/kg of body weight
# human cell systems = settings: cited from earlier work
# cell membranes = settings: cited from earlier work
smiles,measurement,setting,value
"OCCc1ccc(O)c(O)c1 [HT, Hydroxytyrosol]",toxicity or evident alterations in the internal organs,mammals,does not cause toxicity or evident alterations in the internal organs
same,effect on cytotoxic effects of reactive oxygen species,human cell systems,effectively counteracts the cytotoxic effects
same,"permeation of the cell membranes, mechanism",cell membranes,passive mechanism
